The values below come from patent US8778964B2, “Hydroxy-substituted imidazo[1,2-a]-pyridinecarboxamides and their use” (Bayer Pharma Aktiengesellschaft, priority 2012, dated 2014).

Each structure is given as a SMILES string.

The experiment concerns recombinant guanylate cyclase reporter cell line. The experiment is described as follows: Action on recombinant guanylate cyclase reporter cell line (MEC). Format: cell-based. Conditions: in some cases mean values obtained from individual determinations. The method, boiled down:
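Cell-based reporter assay with recombinant guanylate cyclase expressed in a reporter cell line, per a published method. Activity reported as minimal effective concentration (MEC), in some cases as the mean of individual determinations.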
Turning to `CCCC[C@H](CO)NC(=O)c1c(C)nc2c(OCc3c(F)cccc3F)cc(Br)cn12` [Example 65, 6-bromo-8-[(2,6-difluorobenzyl)oxy]-N-[(2R)-1-hydroxyhexan-2-yl]-2-methylimidazo[1,2-a]pyridine-3-carboxamide], the minimal effective concentration – broadly, the lowest level tested that produced the effect sought – was 0.03 µM.

As to `CCCC[C@H](CO)NC(=O)c1c(C)nc2c(OCc3cccc(F)c3)cccn12` [Example 6, 8-[(3-fluorobenzyl)-oxy]-N-[(2R)-1-hydroxyhexan-2-yl]-2-methylimidazo[1,2-a]pyridine-3-carboxamide], the minimal effective concentration amounted to 0.1 µM.

Take `CCCC[C@H](CO)NC(=O)c1c(C)nc2c(OCCC(C(F)(F)F)C(F)(F)F)cc(C)cn12` [Example 169, N-[(2R)-1-Hydroxyhexan-2-yl]-2,6-dimethyl-8-[4,4,4-trifluoro-3-(trifluoromethyl)butoxy]imidazo-[1,2-a]pyridine-3-carboxamide]: the minimal effective concentration is 0.3 µM.

For `Cc1nc2c(OCc3c(F)cccc3F)cccn2c1C(=O)NC(CO)CCC(F)(F)F` (single isomer, unassigned; ent-8) [Example 122, ent-8-[(2,6-Difluorobenzyl)oxy]-2-methyl-N-(5,5,5-trifluoro-1-hydroxypentan-2-yl)imidazo[1,2-a]-pyridine-3-carboxamide], the minimal effective concentration was determined as 0.03 µM.

For `CCCC[C@H](CO)NC(=O)c1c(C)nc2c(OCCC(C)C)cc(C)cn12` [Example 166, N-[(2R)-1-Hydroxyhexan-2-yl]-2,6-dimethyl-8-(3-methylbutoxy)imidazo[1,2-a]pyridine-3-carboxamide], the minimal effective concentration is 1 µM.

Turning to `CCCC[C@H](CO)NC(=O)c1c(C)nc2c(OCc3ccccc3F)cccn12` [Example 5, 8-[(2-fluorobenzyl)-oxy]-N-[(2R)-1-hydroxyhexan-2-yl]-2-methylimidazo[1,2-a]pyridine-3-carboxamide], the minimal effective concentration was 0.1 µM.

For the compound `Cc1nc2c(OCc3c(F)cccc3F)cccn2c1C(=O)NCCO` [Example 21, 8-[(2,6-difluorobenzyl)oxy]-N-(2-hydroxyethyl)-2-methylimidazo[1,2-a]pyridine-3-carboxamide], the minimal effective concentration was determined as 1 µM.

For `CCCCC(NC(=O)c1c(C)nc2c(OCCC(C)C)cc(C)cn12)C(C)(C)O` (stereo not drawn) [Example 167, ent-N-(2-Hydroxy-2-methylheptan-3-yl)-2,6-dimethyl-8-(3-methylbutoxy)imidazo[1,2-a]pyridine-3-carboxamide], the minimal effective concentration amounted to 2 µM.

As to `Cc1nc2c(OCc3c(F)cccc3F)cccn2c1C(=O)NC(CO)c1ccc(F)cc1` (single isomer, unassigned; ent-8) [Example 107, ent-8-[(2,6-Difluorobenzyl)oxy]-N-[1-(4-fluorophenyl)-2-hydroxyethyl]-2-methylimidazo[1,2-a]-pyridine-3-carboxamide], the minimal effective concentration stood at 0.1 µM.

Turning to `CC[C@H](CO)NC(=O)c1c(C)nc2c(OCc3cccc(F)c3F)cccn12` [Example 44, 8-[(2,3-difluorobenzyl)oxy]-N-[(2R)-1-hydroxybutan-2-yl]-2-methylimidazo[1,2-a]-pyridine-3-carboxamide], the minimal effective concentration turned out to be 0.3 µM.

On to `CCCC[C@H](CO)NC(=O)c1c(C)nc2c(OCc3cccc4c3OC(F)(F)O4)cccn12` [Example 12, 8-[(2,2-difluoro-1,3-benzodioxol-4-yl)methoxy]-N-[(2R)-1-hydroxyhexan-2-yl]-2-methylimidazo[1,2-a]-pyridine-3-carboxamide], for which the minimal effective concentration worked out at 3 µM.

For `Cc1nc2c(OCc3c(F)cccc3F)cc(Cl)cn2c1C(=O)N[C@@H](CO)CCCO` [Example 127, 6-Chloro-8-[(2,6-difluorobenzyl)oxy]-N-[(2R)-1,5-dihydroxypentan-2-yl]-2-methylimidazo[1,2-a]-pyridine-3-carboxamide], the minimal effective concentration came to 0.3 µM.

Take `CCCc1nc2c(OCC3CCCCC3)cccn2c1C(=O)N[C@@H](C)CO` [Example 57, 8-(cyclohexylmethoxy)-N-[(2S)-1-hydroxypropan-2-yl]-2-propylimidazo[1,2-a]-pyridine-3-carboxamide]: the minimal effective concentration worked out at 1 µM.

`Cc1nc2c(OCc3c(F)cccc3F)cccn2c1C(=O)N[C@@H](CO)CCCO` [Example 130, 8-[(2,6-difluorobenzyl)oxy]-N-[(2R)-1,5-dihydroxypentan-2-yl]-2-methylimidazo[1,2-a]pyridine-3-carboxamide]: the minimal effective concentration is 1 µM.

As for `CCCC[C@H](CO)NC(=O)c1c(C)nc2c(OCc3c(F)cccc3Cl)cccn12` [Example 3, 8-[(2-chloro-6-fluorobenzyl)oxy]-N-[(2R)-1-hydroxyhexan-2-yl]-2-methylimidazo[1,2-a]pyridine-3-carboxamide], the minimal effective concentration is 0.1 µM.

As for `Cc1nc2c(OCc3c(Cl)cccc3Cl)cccn2c1C(=O)NC(CO)CO` [Example 53, 8-[(2,6-dichlorobenzyl)oxy]-N-(1,3-dihydroxypropan-2-yl)-2-methylimidazo[1,2-a]-pyridine-3-carboxamide], the minimal effective concentration worked out at 10 µM.

In the case of `CCCC[C@H](CO)NC(=O)c1c(C)nc2c(OCc3c(F)cccc3F)cc(C)cn12` [Example 133, 8-[(2,6-difluorobenzyl)oxy]-N-[(2R)-1-hydroxyhexan-2-yl]-2,6-dimethylimidazo[1,2-a]pyridine-3-carboxamide], the minimal effective concentration was found to be 0.01 µM.

As to `CCCC[C@H](CO)NC(=O)c1c(C)nc2c(OCc3c(C)cccc3C)cccn12` [Example 13, 8-[(2,6-dimethylbenzyl)oxy]-N-[(2R)-1-hydroxyhexan-2-yl]-2-methylimidazo[1,2-a]pyridine-3-carboxamide], the minimal effective concentration was determined as 3 µM.

In the case of `Cc1nc2c(OCc3c(F)cccc3F)cccn2c1C(=O)NC(CCC(F)(F)F)C(C)(C)O` (single isomer, unassigned; ent-8) [Example 155, ent-8-[(2,6-Difluorobenzyl)oxy]-2-methyl-N-(6,6,6-trifluoro-2-hydroxy-2-methylhexan-3-yl)-imidazo[1,2-a]pyridine-3-carboxamide (enantiomer B)], the minimal effective concentration came to 0.1 µM.

On to `CCCC[C@@H](NC(=O)c1c(C)nc2c(OCc3c(F)cccc3F)cccn12)C(C)O` (stereo partly drawn) [Example 140, 8-[(2,6-Difluorobenzyl)oxy]-N-[(3R)-2-hydroxyheptan-3-yl]-2-methylimidazo[1,2-a]pyridine-3-carboxamide], for which the minimal effective concentration was found to be 0.03 µM.

Turning to `CCCC[C@H](CO)NC(=O)c1c(C)nc2c(OCc3cccc(C(F)(F)F)c3F)cccn12` [Example 14, 8-{[2-fluoro-3-(trifluoromethyl)benzyl]oxy}-N-[(2R)-1-hydroxyhexan-2-yl]-2-methylimidazo[1,2-a]-pyridine-3-carboxamide], the minimal effective concentration stood at 3 µM.

For `Cc1nc2c(OCc3c(F)cccc3F)cccn2c1C(=O)NCCC(C)O` (racemic) [Example 28, (rac)-8-[(2,6-difluorobenzyl)oxy]-N-(3-hydroxybutyl)-2-methylimidazo[1,2-a]pyridine-3-carboxamide], the minimal effective concentration worked out at 0.65 µM.

As for `Cc1nc2c(OCc3c(F)cccc3F)cccn2c1C(=O)NC[C@@H]1CCCC[C@H]1O` (racemic) [Example 27, (rac)-trans-8-[(2,6-difluorobenzyl)oxy]-N-[(2-hydroxycyclohexyl)methyl]-2-methylimidazo[1,2-a]pyridine-3-carboxamide], the minimal effective concentration was 0.3 µM.

For `Cc1nc2c(OCc3c(F)cccc3F)cccn2c1C(=O)NC(c1ccc(F)cc1)C(C)(C)O` (racemic) [Example 152, rac-8-[(2,6-difluorobenzyl)oxy]-N-[1-(4-fluorophenyl)-2-hydroxy-2-methylpropyl]-2-methylimidazo[1,2-a]pyridine-3-carboxamide], the minimal effective concentration amounted to 0.3 µM.

As for `Cc1nc2c(OCc3c(F)cccc3F)cccn2c1C(=O)NC(CO)C(F)(F)F` (racemic) [Example 110, rac-8-[(2,6-Difluorobenzyl)oxy]-2-methyl-N-(1,1,1-trifluoro-3-hydroxypropan-2-yl)imidazo[1,2-a]pyridine-3-carboxamide], the minimal effective concentration was 0.3 µM.

With `C[C@@H](CO)NC(=O)c1c(C(F)(F)F)nc2c(OCC3CCCCC3)cccn12` [Example 56, 8-(cyclohexylmethoxy)-N-[(2S)-1-hydroxypropan-2-yl]-2-(trifluoromethyl)imidazo[1,2-a]pyridine-3-carboxamide], the minimal effective concentration was 1 µM.

As to `Cc1nc2c(OCc3c(F)cccc3F)cccn2c1C(=O)NCCC(C)(C)O` [Example 153, 8-[(2,6-difluorobenzyl)oxy]-N-(3-hydroxy-3-methylbutyl)-2-methylimidazo[1,2-a]pyridine-3-carboxamide], the minimal effective concentration came out at 0.3 µM.

As for `Cc1nc2c(OCc3c(F)cccc3F)cccn2c1C(=O)N[C@@H](CO)C(C)C` [Example 29, 8-[(2,6-difluorobenzyl)oxy]-N-[(2R)-1-hydroxy-3-methylbutan-2-yl]-2-methylimidazo[1,2-a]-pyridine-3-carboxamide], the minimal effective concentration stood at 0.1 µM.

As for `CCC(O)CNC(=O)c1c(C)nc2c(OCc3c(F)cccc3F)cccn12` (racemic) [Example 30, (rac)-8-[(2,6-difluorobenzyl)oxy]-N-(2-hydroxybutyl)-2-methylimidazo[1,2-a]pyridine-3-carboxamide], the minimal effective concentration is 0.3 µM.

Turning to `Cc1cc(OCCC(C)C)c2nc(C)c(C(=O)NC(CCCC(F)(F)F)C(C)(C)O)n2c1` (single isomer, unassigned; ent-2) [Example 168, ent-2,6-Dimethyl-8-(3-methylbutoxy)-N-(7,7,7-trifluoro-2-hydroxy-2-methylheptan-3-yl)imidazo-[1,2-a]pyridine-3-carboxamide], the minimal effective concentration was determined as 3 µM.

As to `CCCC[C@H](CO)NC(=O)c1c(C)nc2c(OCc3c(F)cccc3F)cc(Cl)cn12` [Example 131, 6-chloro-8-[(2,6-difluorobenzyl)oxy]-N-[(2R)-1-hydroxyhexan-2-yl]-2-methylimidazo[1,2-a]pyridine-3-carboxamide], the minimal effective concentration was determined as 0.01 µM.
